Where two headings read alike, the source gives them in different places.

The target in one test is ERα (wild type) (Homo sapiens (Human), UniProt P03372). Briefly: ERα (wild type) competition binding assay. Conditions: 3H-estradiol competition; Ki from IC50 by Cheng-Prusoff. As to the method:
Add the test compound at 10 different concentrations ranging from 10,000 nM to 0.5 nM, and determine nonspecific binding in the presence of 1 μM of 1713 estradiol. Incubate the binding reaction (140 μL) for 4 hours at room temperature, and then add cold dextran-charcoal buffer (70 μL) (containing per 50 mL of assay buffer, 0.75 g of charcoal and 0.25 g of dextran) to each reaction. Mix the plates for 8 minutes on an orbital shaker at 4° C. and then centrifuge at 3000 rpm at 4° C. for 10 minutes. Transfer an aliquot (120 μL) of the mixture to another 96-well, white flat bottom plate (Costar) and add Perkin Elmer Optiphase Supermix scintillation fluid (175 μL) to each well. Seal the plates and shake vigorously on an orbital shaker. After an incubation of 2.5 hours, read the plates in a Wallac Microbeta counter. […] Convert the IC50 values for the compound to Ki using Cheng-Prusoff equation.

The target of test [1] is T1, ERα (Homo sapiens (Human), UniProt P03372). Put plainly: PRα inhibition (ERα functional antagonism) cell assay in MCF7 cells. Format: cell-based. Particulars: MCF7 cells pretreated with 0.47 nM estradiol, % PRα positive cells; read-out: Relative IC50. The source says: The purpose of the following PRα inhibition (ERα functional antagonism) cell assay is to determine the antagonistic activity of a test compound against the ERα receptor. An antagonist in this assay is expected to block the function of the ERα receptor.
T1 sequence (P03372 whole entry): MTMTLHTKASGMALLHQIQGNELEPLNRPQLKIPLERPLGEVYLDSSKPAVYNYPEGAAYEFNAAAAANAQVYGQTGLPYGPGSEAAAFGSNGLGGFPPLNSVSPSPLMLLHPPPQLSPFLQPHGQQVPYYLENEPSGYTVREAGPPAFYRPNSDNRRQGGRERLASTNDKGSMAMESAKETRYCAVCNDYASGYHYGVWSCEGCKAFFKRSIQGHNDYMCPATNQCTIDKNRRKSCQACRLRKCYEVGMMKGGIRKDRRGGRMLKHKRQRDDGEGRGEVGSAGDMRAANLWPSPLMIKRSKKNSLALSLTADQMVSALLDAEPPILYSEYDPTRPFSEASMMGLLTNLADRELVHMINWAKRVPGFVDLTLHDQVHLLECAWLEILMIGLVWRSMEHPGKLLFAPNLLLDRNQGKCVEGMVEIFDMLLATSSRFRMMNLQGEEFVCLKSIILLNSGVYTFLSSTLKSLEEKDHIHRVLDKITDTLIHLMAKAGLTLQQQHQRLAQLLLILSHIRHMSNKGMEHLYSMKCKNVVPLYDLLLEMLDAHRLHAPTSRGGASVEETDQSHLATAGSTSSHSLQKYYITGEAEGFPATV
Carry out the assay conditions as detailed in the ERα degradation Cell base Acumen assay above, using the MCF7 cell line except that, prior to test compound dispensing, remove the media from the cell plate and pretreat all wells except for the negative control wells (column 24 of the plate) with assay media containing 0.47 nM estradiol for 30 minutes. In this assay, carry out immunostaining for the detection of PRα and scan the plates with ACUMEN EXPLORER™ [Laser-scanning fluorescence microplate cytometer manufactured by TTP LABTECH LTD] to measure PRα. Image analysis is based on cellular fluorescent signals for identifying positive cells. Identify PRα positive cells by mean intensity. Use total intensity at 575-640 from propidium iodide/DNA to identify individual cells. Assay output is % PRα positive cells. Determine the IC50 by curve fitting to a four parameter logistic for each output using GENE DATA™.

Another test has as its system MCF7 ESR1 wild type. Briefly: Cell proliferation assay in MCF7. Particulars: seven days, read-out: Relative IC50 (μM) MCF7 ESR1 wild type. Format: cell-based, human. On the procedure: Seed MCF7 (purchased from ATCC HTB-22) cells at a density of 2,000 cells per well in DMEM phenol red free media 10% FBS (20 μL volume) (charcoal stripped) into a clear bottom 384-well cell culture plate. Plate MCF7-ESRY537N-682 (generated by CRISPR/Cas9 gene editing of ESr1 gene in MCF7 cells, clone #682) in DMEM media supplemented with 10% FBS, and 1% penicillin/streptomycin antibiotics at a density of 1000 cells per well. Incubate the plates at 37° C. and 5% CO2. The following day dose the cells with the test compound. Use an Echo 555 acoustic dispenser to prepare test compound serial dilutions (1:3) in a range from 60 μM to 0.003 μM. Dose the cells with the addition of 5 μL from the serial dilution plate to the cell plate, producing a final DMSO concentration of 0.2% with a final test compound concentration dose range between 20 and 0.001 μM. For the maximum point use media containing 0.2% of DMSO and for the minimum point use fulvestrant diluted at 2 μM final concentrations in the growth media containing 0.2% DMSO. After dosing with the test compound, incubate the cell plates at 37° C. and 5% CO2. Seven days after test compound addition, remove the plates from the incubator and add cold EtOH 96% (65 μL) to each well. […] Seal the plates and incubate 1 hour at room temperature on the bench (preserved from light). Scan the plates with ACUMEN EXPLORER™ [Laser-scanning fluorescence microplate cytometer manufactured by TTP LABTECH LTD].

Test [2] has as its target T1, ERα. Briefly: ERα degradation assay in MCF7 cells. The class given is cell-based. Particulars: 24 hours, % ER positive cells, read-out: Relative IC50. On the procedure: The purpose of the following ERα degradation assay is to measure the degradation of ERα by a test compound in an ERα positive breast cancer cell line such as MCF7.
Culture MCF7 (purchased from ATCC HTB-22) cells in DMEM media supplemented with 10% FBS, 0.01 mg/mL human insulin 1 and 1% penicillin/streptomycin antibiotics and plate in 384-well flat-bottom plates at a density of 4,000 cells per well in phenol red free DMEM media (20 μL) containing 10% charcoal stripped FBS. Incubate the cells overnight in a cell culture incubator (5% CO2, 95% relative humidity and 37° C.) and allow the cells to attach to the plate. The following day dose the cells with the test compound. Use an Echo 555 acoustic dispenser to prepare test compound serial dilutions (1:3) in a range from 6 μM to 0.0003 μM. Dose the cells with the addition of 5 μL from the serial dilution plate to the cell plate producing a final DMSO concentration of 0.2% with a final test compound concentration dose range between 2 and 0.0001 μM. For the maximum point, use media containing 0.2% of DMSO and for the minimum point, use fulvestrant diluted at 2 μM final concentrations in the growth media containing 0.2% DMSO. After dosing with the test compound, incubate the cell plates at 37° C. and 5% CO2 for 24 hours. Fix the cells by adding 14% para-formaldehyde (10 μL) for 30 minutes at room temperature. Wash the cells once with PBS (20 μL) and incubate with PBS (20 μL) containing 0.5% (v/v) TWEEN® 20 for 1 hour. Wash the cells with PBS containing 0.05% TWEEN® 20 (2×) and block with 3% BSA in PBS containing 0.05% TWEEN® 20 and 0.1% TRITON™ X-100 (20 μL/well) for 1 hour at room temperature. Add 1:500 Primary antibody (20 μL) (ERα (Clone SP1) monoclonal rabbit antibody # RM-9101-S, Thermo Scientific) dilution in 1% BSA in PBS containing 0.05% TWEEN® 20 per well, seal the plates and incubate overnight at 4° C. The following day wash the cells with PBS containing 0.05% TWEEN® 20 (2×) and incubate with secondary antibody (20 μL/well) (1:1000 dilution, Goat anti-rabbit IgM ALEXA FLUOR™ 488) in PBS 1% BSA for 105 minutes at room temperature. […] Seal the plates and incubate 1 hour at room temperature on the bench (preserved from light). Scan the plates with ACUMEN EXPLORER™ [Laser-scanning fluorescence microplate cytometer manufactured by TTP LABTECH LTD] to measure ERα. Image analysis is based on cellular fluorescent signals for identifying positive cells. Identify ER positive cells by mean intensity. Use total intensity at 575-640 nm from propidium iodide/DNA to identify individual cells. Assay output is % ER positive cells. Determine the IC50 by curve fitting to a four parameter logistic for each output using GENE DATA™.

Chain of ERα (wild type) (P03372 whole entry): as above

As a reminder, the Ki is a measure of affinity in units of concentration, obtained from inhibition or displacement. Low readings indicate tighter binding, high ones weaker binding. The IC50 is the concentration at which inhibition is half-maximal. `Oc1ccc2c3c(cnc2c1)-c1cccc(C(F)(F)F)c1OC3c1ccc(OCCN2CC(CF)C2)cc1` (racemic) [Example 2, 5-(4-{2-[3-(fluoromethyl)azetidin-1-yl]ethoxy}phenyl)-7-(trifluoromethyl)-5H-[1]benzopyrano[4,3-c]quinolin-2-ol] displayed a Ki at ERα (wild type) of 2.17 nM. Further, the IC50 at ERα [1] was determined as 163 nM; in the test on MCF7 ESR1 wild type (Homo sapiens, MCF7, […]) it was 0.00425 µM. For the same compound, the DC50 at ERα [2] came to 52.2 ± 6.51 nM.
Regarding `Oc1ccc2c3c(cnc2c1)-c1cccc(Cl)c1OC3c1ccc(OCCN2CC(CF)C2)cc1` (racemic) [Example 4, 7-chloro-5-(4-{2-[3-(fluoromethyl)azetidin-1-yl]ethoxy}phenyl)-5H-[1]benzopyrano[4,3-c]quinolin-2-ol], at ERα (wild type), the affinity, expressed as Ki, was 0.64 nM. For the same compound, the IC50 at ERα [1] was determined as 76.3 ± 168 nM; in the test with MCF7 ESR1 wild type (Homo sapiens, MCF7, […]), 0.0286 µM. The DC50 at ERα [2] came to 22.4 ± 0.355 nM.
On ERα (wild type), `Oc1ccc2c3c(cnc2c1)-c1ccc(F)cc1OC3c1ccc(OCCN2CC(CF)C2)cc1` (racemic) [Example 5, 8-fluoro-5-(4-{2-[3-(fluoromethyl)azetidin-1-yl]ethoxy}phenyl)-5H-[1]benzopyrano[4,3-c]quinolin-2-ol] came in with a Ki of 2.82 nM. The IC50 on ERα [1] is 118 ± 12.3 nM; in the test on MCF7 ESR1 wild type (Homo sapiens, MCF7, […]), 0.0801 µM. The DC50 on ERα [2] was found to be 36.5 ± 37.4 nM.
`Oc1ccc2c3c(cnc2c1)-c1cccc(F)c1OC3c1ccc(OCCN2CC(CF)C2)cc1` (racemic) [Example 6, 7-fluoro-5-(4-{2-[3-(fluoromethyl)azetidin-1-yl]ethoxy}phenyl)-5H-[1]benzopyrano[4,3-c]quinolin-2-ol]: the Ki on ERα (wild type) is 4.14 nM. Besides, the IC50 turned out to be 82.6 ± 5.68 nM at ERα [1] and 0.0513 µM in the test with MCF7 ESR1 wild type (Homo sapiens, MCF7, […]). Moreover, the DC50 on ERα [2] was 50.9 ± 6.89 nM.
On the same counts, the results for `Cc1ccc2c(c1)OC(c1ccc(OCCN3CC(CF)C3)cc1)c1c-2cnc2cc(O)ccc12` (racemic) [Example 7, 5-(4-{2-[3-(fluoromethyl)azetidin-1-yl]ethoxy}phenyl)-8-methyl-5H-[1]benzopyrano[4,3-c]quinolin-2-ol] are 1.55 nM, 113 ± 20.9 nM, 0.019 µM and 78.8 ± 7.38 nM.
At ERα (wild type), `Cc1cccc2c1OC(c1ccc(OCCN3CC(CF)C3)cc1)c1c-2cnc2cc(O)ccc12` (racemic) [Example 8, 5-(4-{2-[3-(fluoromethyl)azetidin-1-yl]ethoxy}phenyl)-7-methyl-5H-[1]benzopyrano[4,3-c]quinolin-2-ol] had a Ki of 3.2 nM. The IC50 at ERα [1] worked out at 68.3 ± 22.7 nM; in the test on MCF7 ESR1 wild type (Homo sapiens, MCF7, […]) it was 0.0416 µM. Further, the DC50 at ERα [2] is 17.4 ± 8.75 nM.
In the case of `Oc1ccc2c3c(cnc2c1)-c1ccc(C(F)(F)F)cc1OC3c1ccc(OCCN2CC(CF)C2)cc1` (single isomer, unassigned) [Example 1B, 5-(4-{2-[3-(Fluoromethyl)azetidin-1-yl]ethoxy}phenyl)-8-(trifluoromethyl)-5H-[1]benzopyrano[4,3-c]quinolin-2-ol], the IC50 in the test on MCF7 ESR1 wild type came out at 0.00349 ± 0.00225 µM.
As to `Oc1ccc2c3c(cnc2c1)-c1cccc(C(F)(F)F)c1OC3c1ccc(OCCN2CC(CF)C2)cc1` (single isomer, unassigned) [Example 2A, 5-(4-{2-[3-(Fluoromethyl)azetidin-1-yl]ethoxy}phenyl)-7-(trifluoromethyl)-5H-[1]benzopyrano[4,3-c]quinolin-2-ol], the inhibition constant (Ki) at ERα (wild type) worked out at 0.65 nM. Besides, the values for the IC50 on ERα [1] and with MCF7 ESR1 wild type were 121 ± 53.7 nM and 0.00612 µM, respectively. The DC50 at ERα [2] was 51.2 ± 16.3 nM.
Regarding `Oc1ccc2c3c(cnc2c1)-c1cccc(F)c1OC3c1ccc(OCCN2CC(CF)C2)cc1` (single isomer, unassigned) [Example 6B, 7-Fluoro-5-(4-{2-[3-(fluoromethyl)azetidin-1-yl]ethoxy}phenyl)-5H-[1]benzopyrano[4,3-c]quinolin-2-ol], the inhibitory constant (Ki) on ERα (wild type) came out at 1.13 nM. Also, the IC50 at ERα [1] amounted to 28.4 nM. The DC50 on ERα [2] came out at 9.13 nM.
